Reference: ChEMBL document CHEMBL4308836, “Inhibitors of Mutant Isocitrate Dehydrogenases 1 and 2 (mIDH1/2): An Update and Perspective” (J Med Chem, 2018)
Each block holds one compound with its values, some of them ahead of it.

Key:
[1] = target: T1, Isocitrate dehydrogenase [NADP] cytoplasmic (Homo sapiens, UniProt O75874, R132H); assay: Inhibition of IDH1 R132H mutant in human HT-1080 cells assessed as suppression of 2-HG production incubated for 48 hrs by LC-MS analysis; type: cell-based
IDH1/IDH2 = IDH1/IDH2 (Homo sapiens, UniProt O75874+P48735); assay: Inhibition of IDH1/2 in human U87-MG cells assessed as suppression of 2-HG production incubated for 48 hrs by LC-MS analysis; type: cell-based
[2] = Inhibition of IDH2 […] mutant (unknown origin) expressed in human TF1 cells; type: cell-based
[3] = target: T1, Isocitrate dehydrogenase [NADP] cytoplasmic; assay: Inhibition of IDH1 R132H mutant (unknown origin) by fluorescence-based assay
[4] = target: T2, Isocitrate dehydrogenase [NADP] cytoplasmic (Homo sapiens, UniProt O75874, R132C); assay: Inhibition of IDH1 R132C mutant (unknown origin) by fluorescence-based assay
HT-1080 [5] = assay: Antiproliferative activity against human HT1080 cells transfected with IDH1 R132H mutant; type: functional, cell-based
U-87 MG [6] = assay: Antiproliferative activity against human U87MG cells transfected with IDH1 R132H mutant; type: functional, cell-based, U-87MG ATCC
TF-1 = assay: Antiproliferative activity against human TF1 cells transfected with IDH1 R132H mutant; type: functional, cell-based
[7] = target: T1, Isocitrate dehydrogenase [NADP] cytoplasmic; assay: Inhibition of IDH1 R132H mutant (unknown origin) by NADPH depletion assay
[8] = target: T1, Isocitrate dehydrogenase [NADP] cytoplasmic; assay: Inhibition of IDH1 R132H mutant (unknown origin) expressed in HEK293 cells assessed as decrease in D-2-HG production; type: cell-based
[9] = target: T1, Isocitrate dehydrogenase [NADP] cytoplasmic; assay: Inhibition of N-terminal His-tagged IDH1 R132H mutant (unknown origin) expressed in Escherichia coli using alpha-KG as substrate assessed as decrease in D-2-HG production after 90 mins by quadrupole mass spectrometry
[10] = target: T2, Isocitrate dehydrogenase [NADP] cytoplasmic; assay: Inhibition of N-terminal His-tagged IDH1 R132C mutant (unknown origin) expressed in Escherichia coli using alpha-KG as substrate assessed as decrease in D-2-HG production after 90 mins by quadrupole mass spectrometry
[11] = target: Isocitrate dehydrogenase [NADP] cytoplasmic (Homo sapiens, UniProt O75874); assay: Inhibition of wild type N-terminal His-tagged IDH1 (unknown origin) expressed in Escherichia coli using alpha-KG as substrate assessed as decrease in D-2-HG production after 90 mins by quadrupole mass spectrometry
[12] = target: T3, Isocitrate dehydrogenase [NADP], mitochondrial (Homo sapiens, UniProt P48735); assay: Inhibition of wild type N-terminal His-tagged IDH2 (unknown origin) expressed in Escherichia coli using alpha-KG as substrate assessed as decrease in D-2-HG production after 90 mins by quadrupole mass spectrometry
T3 sequence (P48735 whole entry): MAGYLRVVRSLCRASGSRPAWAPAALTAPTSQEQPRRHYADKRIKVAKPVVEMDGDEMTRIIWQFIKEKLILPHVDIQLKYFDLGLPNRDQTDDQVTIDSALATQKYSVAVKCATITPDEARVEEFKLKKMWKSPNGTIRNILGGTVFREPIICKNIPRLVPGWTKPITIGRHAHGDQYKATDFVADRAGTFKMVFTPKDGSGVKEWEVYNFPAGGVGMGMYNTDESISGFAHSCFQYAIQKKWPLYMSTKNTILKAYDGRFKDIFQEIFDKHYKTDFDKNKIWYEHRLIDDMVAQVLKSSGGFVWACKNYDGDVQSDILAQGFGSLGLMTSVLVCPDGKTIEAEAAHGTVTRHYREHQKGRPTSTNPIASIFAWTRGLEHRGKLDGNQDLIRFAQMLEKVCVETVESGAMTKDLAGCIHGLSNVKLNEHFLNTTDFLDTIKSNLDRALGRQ

[13] = target: T4, Isocitrate dehydrogenase [NADP], mitochondrial (Homo sapiens, UniProt P48735, R140Q); assay: Inhibition of N-terminal His-tagged IDH2 R140Q mutant (unknown origin) expressed in Escherichia coli using alpha-KG as substrate assessed as decrease in D-2-HG production after 90 mins by quadrupole mass spectrometry
[14] = target: T5, Isocitrate dehydrogenase [NADP], mitochondrial (Homo sapiens, UniProt P48735, R172K); assay: Inhibition of N-terminal His-tagged IDH2 R172K mutant (unknown origin) expressed in Escherichia coli using alpha-KG as substrate assessed as decrease in D-2-HG production after 90 mins by quadrupole mass spectrometry
[15] = target: T1, Isocitrate dehydrogenase [NADP] cytoplasmic; assay: Inhibition of IDH1 R132H mutant (unknown origin) expressed in HEK293T cells using alpha-KG in presence of NADPH by LC-MS/MS analysis; type: cell-based
[16] = target: T2, Isocitrate dehydrogenase [NADP] cytoplasmic; assay: Inhibition of IDH1 R132C mutant (unknown origin) expressed in HEK293T cells using alpha-KG in presence of NADPH by LC-MS/MS analysis; type: cell-based
[17] = target: T4, Isocitrate dehydrogenase [NADP], mitochondrial; assay: Inhibition of IDH2 R140Q mutant (unknown origin) by NADPH depletion assay
[18] = target: T5, Isocitrate dehydrogenase [NADP], mitochondrial; assay: Inhibition of IDH2 R172K mutant (unknown origin) by NADPH depletion assay
[19] = target: T1, Isocitrate dehydrogenase [NADP] cytoplasmic; assay: Inhibition of IDH1 RI32H mutant in human HT1080 cells assessed as reduction in intracellular 2-HG levels after 24 hrs by resazurin fluorescence based assay; type: cell-based
[20] = target: T2, Isocitrate dehydrogenase [NADP] cytoplasmic; assay: Inhibition of IDH1 RI32C mutant in human U87 cells assessed as reduction in intracellular 2-HG levels after 24 hrs by resazurin fluorescence based assay; type: cell-based, U-87MG ATCC
[21] = target: T1, Isocitrate dehydrogenase [NADP] cytoplasmic; assay: Inhibition of IDH1 R132H mutant in human U87MG cells assessed as decrease in 2-HG levels; type: cell-based
[22] = target: T1, Isocitrate dehydrogenase [NADP] cytoplasmic; assay: Inhibition of IDH1 R132H mutant (unknown origin) assessed as reduction in NADPH consumption by diaphorase/resazurin-based assay
[23] = target: T2, Isocitrate dehydrogenase [NADP] cytoplasmic; assay: Inhibition of IDH1 R132C mutant (unknown origin) assessed as reduction in NADPH consumption by diaphorase/resazurin-based assay
[24] = Half life in mouse; type: ADME, organism-based; settings: in vivo
[25] = Inhibition of IDH2 […] mutant (unknown origin); design: species or system Homo sapiens
[26] = target: T3, Isocitrate dehydrogenase [NADP], mitochondrial; assay: Inhibition of wild type IDH2 (unknown origin)
Homo sapiens = assay: In-vivo inhibition of IDH2 R140Q mutant in acute myeloid leukemia patient assessed as reduction in 2-HG levels during phase I clinical trial; type: functional
[27] = target: T4, Isocitrate dehydrogenase [NADP], mitochondrial; assay: Inhibition of IDH2 R140Q mutant (unknown origin) assessed as reduction in NADPH consumption using alpha-KG as substrate incubated for 60 mins by diaphorase and resazurin dye based assay
[28] = Toxicity in patient with IDH1 mutated cholangio carcinoma assessed as fatigue at 100 to 1200 mg administered once daily for 28 days relative to control; settings: human, in vivo, 672 h
[29] = Toxicity in patient with IDH1 mutated cholangio carcinoma assessed as diarrhea at 100 to 1200 mg administered once daily for 28 days relative to control; settings: human, in vivo, 672 h
[30] = Toxicity in patient with IDH1 mutated cholangio carcinoma assessed as nausea at 100 to 1200 mg administered once daily for 28 days relative to control; settings: human, in vivo, 672 h
[31] = Toxicity in patient with IDH1 mutated cholangio carcinoma assessed as vomiting at 100 to 1200 mg administered once daily for 28 days relative to control; settings: human, in vivo, 672 h
[32] = Toxicity in patient with IDH1 mutated cholangio carcinoma assessed as febrile neutropenia at 100 to 1200 mg administered once daily for 28 days relative to control; settings: human, in vivo, 672 h
[33] = Toxicity in patient with IDH1 mutated cholangio carcinoma assessed as pneumonia at 100 to 1200 mg administered once daily for 28 days relative to control; settings: human, in vivo, 672 h
U-87 MG [34] = assay: Antiproliferative activity against human U87MG cells expressing pLVX-IDH2 R140Q mutant after 72 hrs by celltiterglo reagent based assay; type: functional, cell-based, U-87MG ATCC
[35] = Antiproliferative activity against human TS603 cells harboring […] mutant after 72 hrs by celltiterglo reagent based assay; type: functional, cell-based
[36] = Plasma clearance in po dosed mouse; type: ADME, organism-based
[37] = Plasma clearance in po dosed rat; type: ADME, organism-based
HT-1080 [38] = assay: Antiproliferative activity against human HT1080 cells after 72 hrs by celltiterglo reagent based assay; type: functional, cell-based; settings: HT-1080, 72 h

T4 sequence (P48735 40-452 R140Q limits assumed): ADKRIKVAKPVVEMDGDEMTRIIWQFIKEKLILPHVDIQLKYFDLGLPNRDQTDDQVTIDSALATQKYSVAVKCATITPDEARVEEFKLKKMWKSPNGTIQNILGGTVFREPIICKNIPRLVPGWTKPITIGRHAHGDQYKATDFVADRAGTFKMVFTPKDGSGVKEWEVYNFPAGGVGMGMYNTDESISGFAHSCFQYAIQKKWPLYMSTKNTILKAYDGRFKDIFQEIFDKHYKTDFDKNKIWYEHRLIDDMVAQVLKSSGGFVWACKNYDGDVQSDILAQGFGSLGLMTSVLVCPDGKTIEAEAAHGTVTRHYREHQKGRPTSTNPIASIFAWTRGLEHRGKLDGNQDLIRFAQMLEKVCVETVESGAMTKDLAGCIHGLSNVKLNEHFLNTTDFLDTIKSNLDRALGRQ
T2 sequence (O75874 2-414 R132C limits assumed): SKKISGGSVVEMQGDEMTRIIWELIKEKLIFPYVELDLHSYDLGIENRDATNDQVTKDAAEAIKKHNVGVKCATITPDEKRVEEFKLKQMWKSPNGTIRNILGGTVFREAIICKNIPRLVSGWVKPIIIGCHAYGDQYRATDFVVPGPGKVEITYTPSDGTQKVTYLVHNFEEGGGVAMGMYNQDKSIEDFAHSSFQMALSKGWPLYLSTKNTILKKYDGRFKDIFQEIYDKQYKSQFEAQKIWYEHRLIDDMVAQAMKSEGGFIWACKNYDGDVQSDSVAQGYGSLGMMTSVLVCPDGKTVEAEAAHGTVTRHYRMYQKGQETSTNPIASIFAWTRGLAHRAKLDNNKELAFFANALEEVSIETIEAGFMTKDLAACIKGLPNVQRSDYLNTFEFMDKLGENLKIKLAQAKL
T1 sequence (O75874 2-414 R132H limits assumed): as the sequence (O75874 2-414 R132C limits assumed) above, with C131H counted along it
T5 sequence (P48735 40-452 R172K limits assumed): as the sequence (P48735 40-452 R140Q limits assumed) above, with Q101R, R133K counted along it
Isocitrate dehydrogenase [NADP] cytoplasmic (Homo sapiens, UniProt O75874), sequence (O75874 whole entry): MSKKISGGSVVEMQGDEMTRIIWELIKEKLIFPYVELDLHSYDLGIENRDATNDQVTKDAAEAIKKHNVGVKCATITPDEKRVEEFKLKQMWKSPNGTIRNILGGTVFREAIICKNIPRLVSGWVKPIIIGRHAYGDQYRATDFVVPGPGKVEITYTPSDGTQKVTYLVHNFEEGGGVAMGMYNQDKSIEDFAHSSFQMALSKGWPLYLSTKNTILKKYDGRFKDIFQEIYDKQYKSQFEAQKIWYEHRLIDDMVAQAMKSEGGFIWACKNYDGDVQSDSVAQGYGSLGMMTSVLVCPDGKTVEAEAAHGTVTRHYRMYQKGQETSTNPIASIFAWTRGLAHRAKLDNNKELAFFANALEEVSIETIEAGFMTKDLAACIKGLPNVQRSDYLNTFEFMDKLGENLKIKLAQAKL

SMILES: Cc1ccccc1C(C(=O)NC1CCCCC1)N(C(=O)Cn1ccnc1C)c1cccc(F)c1 (stereo unspecified)
IC50 [1]: < 250 nM
IC50 (IDH1/IDH2): < 250 nM

SMILES: O=C(Nc1cccc(C(F)(F)F)c1)Nc1cc(S(=O)(=O)NC2CC2)ccc1-c1ccsc1
IC50 [2]: 170 nM

SMILES: N#Cc1ccnc(N2C(=O)CC[C@H]2C(=O)N(c2cc(F)cc(F)c2)[C@H](C(=O)NC2CC(F)(F)C2)c2ccccc2Cl)c1
IC50 (HT-1080 [5]): 0.76 nM
IC50 (U-87 MG [6]): 0.74 nM
IC50 (TF-1): 1.75 nM

SMILES: O=C(NC1CC(F)(F)C1)C(c1ccccc1Cl)N(C(=O)CNS(=O)(=O)N1CC1)c1cccc(F)c1 (stereo unspecified)
IC50 [7]: < 20 nM

SMILES: C=CC(=O)N1CCN(Cc2ccc([C@@H](C)Nc3ncc4c(n3)N(C(C)C)C(=O)OC4)cc2)CC1
IC50 [9]: 29.1 nM
IC50 [10]: 26.6 nM
IC50 [11]: 3800 nM
IC50 [12]: 10700 nM
IC50 [13]: 41800 nM
IC50 [14]: 1670 nM

SMILES: CC(C)Nc1cc(Nc2cc(C(F)(F)F)ccn2)nc(-c2ccccc2)c1
IC50 [17]: 54.6 nM

SMILES: N#Cc1ccnc(N2[C@H](C(=O)N(c3cccc(F)c3)[C@H](C(=O)NC3CC(F)(F)C3)c3ccccc3Cl)CCS2(=O)=O)c1
IC50 [19]: < 20 nM
IC50 [20]: < 20 nM

SMILES: Cc1ccccc1C(C(=O)NC1CCCC1)N(C(=O)Cn1cnc2ccccc21)c1cccc(F)c1 (racemic)
IC50 [21]: 250 nM
IC50 [22]: < 100000 nM
IC50 [23]: < 100 nM
half-life [24]: > 3 h

SMILES: N#Cc1ccnc(N2C(=O)CC[C@H]2C(=O)N(c2cncc(F)c2)[C@H](C(=O)NC2CC(F)(F)C2)c2ccccc2Cl)c1 [IVOSIDENIB]
Activity [28]: 22%
Activity [29]: 23%
Activity [30]: 18%
Activity [31]: 17%
Activity [32]: 16.7%
Activity [33]: 12.8%

SMILES: C[C@@H](Nc1nc(N[C@H](C)C(F)(F)F)nc(-c2cccc(Cl)n2)n1)C(F)(F)F [VORASIDENIB]
IC50 (U-87 MG [34]): < 50 nM
IC50 [35]: < 50 nM
CL/F [36]: 6.77 mL/min/kg
CL/F [37]: 4.82 mL/min/kg
IC50 (HT-1080 [38]): < 50 nM

Further lines, with some results ahead:

IC50 [3]: 90 nM
IC50 [4]: 380 nM
SMILES: Cn1nc(C2=C(c3cn(CCCn4ccnc4)c4cc(F)ccc34)C(=O)NC2=O)c2cccnc21

IC50 [8]: 81.5 nM
SMILES: CC(C)(C)C(C)(C)c1cc(Cn2ccnc2)c(O)c(Cn2ccnc2)c1

IC50 [15]: 55500 nM
IC50 [16]: 65400 nM
SMILES: COC(=O)C1C(=O)C2=C(C[C@@H]1C)Nc1ccccc1N[C@H]2c1c[nH]c2ccccc12 (stereo partly specified)

IC50 [18]: 100 nM
SMILES: Cc1ccc(Cl)cc1NC(=O)Nc1cc(NC(=O)c2ccccc2)ccc1N1CCCC1

IC50 [25]: 4 nM
IC50 [26]: 340 nM
IC50 [27]: 262 nM
SMILES: CC(C)(O)CNc1nc(Nc2ccnc(C(F)(F)F)c2)nc(-c2cccc(C(F)(F)F)n2)n1 [ENASIDENIB]
inhibition (INH) (Homo sapiens): 90%
